Assay results taken from the NIST ThermoML archive (doi:10.1021/je700260f).

Conditions: 293.15 K, Liquid, Vibrating tube method

FC(C(F)(F)F)C(F)(F)F [1,1,1,2,3,3,3-heptafluoropropane]
Conditions	mass density [kg/m3]
11786 kPa	1474.1
11826 kPa	1474.2
11860 kPa	1474.3
11894 kPa	1474.6
11934 kPa	1474.7
11967 kPa	1474.9
12017 kPa	1475.1
12045 kPa	1475.2
12079 kPa	1475.4
12119 kPa	1475.5
12156 kPa	1475.8
12195 kPa	1475.9
12235 kPa	1476.1
12280 kPa	1476.3
12314 kPa	1476.4
12354 kPa	1476.7
12388 kPa	1476.9
12422 kPa	1476.9
12468 kPa	1477.1
12502 kPa	1477.4
12549 kPa	1477.5
12591 kPa	1477.7
12626 kPa	1477.9
12670 kPa	1478
12710 kPa	1478.2
12745 kPa	1478.3
12888 kPa	1479
12980 kPa	1479.5
13020 kPa	1479.6
13072 kPa	1479.9
13099 kPa	1480
13131 kPa	1480.1
13163 kPa	1480.3
13195 kPa	1480.5
13233 kPa	1480.6
13264 kPa	1480.7
13307 kPa	1480.8
13344 kPa	1481.1
13371 kPa	1481.1
13408 kPa	1481.4
13440 kPa	1481.4
13489 kPa	1481.8
13521 kPa	1481.8
13564 kPa	1482
13606 kPa	1482.2
13649 kPa	1482.4
13687 kPa	1482.5
13719 kPa	1482.6
13758 kPa	1482.8
13797 kPa	1482.9
13824 kPa	1483.2
13857 kPa	1483.3
13891 kPa	1483.4
13930 kPa	1483.6
13963 kPa	1483.7
14065 kPa	1484.2
14101 kPa	1484.3
14128 kPa	1484.5
14165 kPa	1484.6
14192 kPa	1484.8
14223 kPa	1484.9
14249 kPa	1484.9
14285 kPa	1485
14316 kPa	1485.3
14339 kPa	1485.3
14370 kPa	1485.5
14403 kPa	1485.6
14431 kPa	1485.7
14462 kPa	1485.9
14489 kPa	1486
14520 kPa	1486.2
14557 kPa	1486.3
14598 kPa	1486.4
14635 kPa	1486.6
14673 kPa	1486.7
14705 kPa	1487
14732 kPa	1486.9
14759 kPa	1487.1
14795 kPa	1487.3
14831 kPa	1487.5
14872 kPa	1487.5
14913 kPa	1487.8
14940 kPa	1487.9
14973 kPa	1488
15005 kPa	1488.2
15038 kPa	1488.2
15080 kPa	1488.6
15103 kPa	1488.6
15144 kPa	1488.7
15181 kPa	1488.9
15209 kPa	1488.8
15237 kPa	1489.1
15270 kPa	1489.2
15298 kPa	1489.5
15335 kPa	1489.4
15363 kPa	1489.7
15398 kPa	1489.7
15425 kPa	1489.9
15467 kPa	1490.1
15504 kPa	1490.2
15527 kPa	1490.4
15569 kPa	1490.6
15611 kPa	1490.8
15639 kPa	1490.9
15672 kPa	1490.8
15719 kPa	1491.1
15747 kPa	1491.3
15777 kPa	1491.4
15814 kPa	1491.4
15837 kPa	1491.6
15880 kPa	1491.9
15913 kPa	1492
15942 kPa	1492.2
15975 kPa	1492.2
16018 kPa	1492.4
16046 kPa	1492.3
16079 kPa	1492.7
16118 kPa	1492.8
16153 kPa	1493
16181 kPa	1493.1
16215 kPa	1493.2
16244 kPa	1493.2
16277 kPa	1493.6
16315 kPa	1493.7
16344 kPa	1493.7
16377 kPa	1493.9
16411 kPa	1493.9
16446 kPa	1494.1
16474 kPa	1494.1
16503 kPa	1494.3
16532 kPa	1494.4
16734 kPa	1495.3
16772 kPa	1495.4
16831 kPa	1495.6
16865 kPa	1495.9
16904 kPa	1496
16934 kPa	1496.2
16964 kPa	1496.2
16998 kPa	1496.3
17038 kPa	1496.5
17068 kPa	1496.6
17113 kPa	1496.7
17158 kPa	1497
17183 kPa	1497.1
17228 kPa	1497.2
17263 kPa	1497.4
17293 kPa	1497.5
17334 kPa	1497.7
17375 kPa	1497.8
17405 kPa	1498
17450 kPa	1498.2
17485 kPa	1498.2
17520 kPa	1498.5
17555 kPa	1498.5
17654 kPa	1498.9
17694 kPa	1499.1
17726 kPa	1499.2
17756 kPa	1499.4
17801 kPa	1499.4
17831 kPa	1499.5
17856 kPa	1499.6
17902 kPa	1499.9
17933 kPa	1499.9
17969 kPa	1500.2
18004 kPa	1500.4
18044 kPa	1500.5
18075 kPa	1500.4
18124 kPa	1500.8
18164 kPa	1500.9
18194 kPa	1501.1
18235 kPa	1501.3
18276 kPa	1501.4
18313 kPa	1501.5
18349 kPa	1501.6
18391 kPa	1501.8
18428 kPa	1502
18459 kPa	1502
18502 kPa	1502.3
18544 kPa	1502.5
18574 kPa	1502.5
18611 kPa	1502.7
18650 kPa	1502.7
18678 kPa	1502.9
18720 kPa	1503.1
18753 kPa	1503.1
18785 kPa	1503.3
18822 kPa	1503.5
18859 kPa	1503.7
18888 kPa	1503.6
18925 kPa	1503.8
18953 kPa	1503.9
18981 kPa	1504.1
19018 kPa	1504.2
19055 kPa	1504.4
19084 kPa	1504.5
19116 kPa	1504.5
19145 kPa	1504.6
19183 kPa	1504.8
19210 kPa	1505
19243 kPa	1505
19282 kPa	1505.2
19320 kPa	1505.4
19349 kPa	1505.5
19392 kPa	1505.6
19430 kPa	1505.9
19460 kPa	1505.8
